Measurements as given in ChEMBL document CHEMBL1201861, “Genomics of Drug Sensitity in Cancer screening data, Wellcome Trust Sanger Institute”.

Tests used:
Experiment in all cases: cells
[1] = test system: OCUB-M; format: functional, cell-based, Homo sapiens; details: Homo sapiens, OCUB-M;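 also: growth inhibition of the cancer cell line, read out through a cell viability assay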
Description: SANGER: Inhibition of human OCUB-M cell growth in a cell viability assay.

[2] = test system: Ramos-2G6-4C10; format: functional, cell-based, Homo sapiens; details: Homo sapiens, Ramos-2G6-4C10;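 also: growth inhibition of the cell line, measured by a cell viability read-out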
Description: SANGER: Inhibition of human Ramos-2G6-4C10 cell growth in a cell viability assay.

[3] = test system: GOTO; format: functional, cell-based, Homo sapiens; details: Homo sapiens, GOTO;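 also: growth inhibition of GOTO cells, read out by a cell viability assay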
Description: SANGER: Inhibition of human GOTO cell growth in a cell viability assay.

[4] = test system: IA-LM; format: functional, cell-based, Homo sapiens; details: Homo sapiens, IA-LM;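 also: cell viability assay measuring growth inhibition of human IA-LM cells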
Description: SANGER: Inhibition of human IA-LM cell growth in a cell viability assay.

[5] = test system: RCC10RGB; format: functional, cell-based, Homo sapiens; details: Homo sapiens, RCC10RGB;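 also: growth inhibition of human RCC10RGB cells, read out by a cell viability assay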
Description: SANGER: Inhibition of human RCC10RGB cell growth in a cell viability assay.

[6] = test system: U-87 MG; format: functional, cell-based, Homo sapiens, U-87MG ATCC; details: Homo sapiens, U-87 MG;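 also: growth inhibition of the cells measured with a viability assay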
Description: SANGER: Inhibition of human U-87-MG cell growth in a cell viability assay.

[7] = test system: HOP-62; format: functional, cell-based, Homo sapiens; details: Homo sapiens, HOP-62;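 also: cell growth inhibition determined with a viability assay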
Description: SANGER: Inhibition of human HOP-62 cell growth in a cell viability assay.

[8] = test system: EW-11; format: functional, cell-based, Homo sapiens; details: Homo sapiens, EW-11;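 also: growth inhibition of human EW-11 cells, measured with a cell viability assay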
Description: SANGER: Inhibition of human EW-11 cell growth in a cell viability assay.

[9] = test system: U-266; format: functional, cell-based, Homo sapiens; details: Homo sapiens, U-266
Description: SANGER: Inhibition of human U-266 cell growth in a cell viability assay.

[10] = test system: RS4-11; format: functional, cell-based, Homo sapiens; details: Homo sapiens, RS4-11;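 also: growth inhibition of RS4-11 cells, read out by a cell viability assay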
Description: SANGER: Inhibition of human RS4-11 cell growth in a cell viability assay.

[11] = test system: OS-RC-2; format: functional, cell-based, Homo sapiens; details: Homo sapiens, OS-RC-2;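 also: growth inhibition of human OS-RC-2 cells, measured by a cell viability assay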
Description: SANGER: Inhibition of human OS-RC-2 cell growth in a cell viability assay.

[12] = test system: SK-NEP-1; format: functional, cell-based, Homo sapiens; details: Homo sapiens, SK-NEP-1;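 also: growth inhibition of human SK-NEP-1 cells, read out by a cell viability assay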
Description: SANGER: Inhibition of human SK-NEP-1 cell growth in a cell viability assay.

[13] = test system: CGTH-W-1; format: functional, cell-based, Homo sapiens; details: Homo sapiens, CGTH-W-1;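 also: growth inhibition of human CGTH-W-1 cells measured by cell viability assay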
Description: SANGER: Inhibition of human CGTH-W-1 cell growth in a cell viability assay.

[14] = test system: DU-4475; format: functional, cell-based, Homo sapiens; details: Homo sapiens, DU-4475
Description: SANGER: Inhibition of human DU-4475 cell growth in a cell viability assay.

[15] = test system: KS-1; format: functional, cell-based, Homo sapiens; details: Homo sapiens, KS-1;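 also: growth inhibition of KS-1 cells, read out with a cell viability assay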
Description: SANGER: Inhibition of human KS-1 cell growth in a cell viability assay.

[16] = test system: NB69; format: functional, cell-based, Homo sapiens; details: Homo sapiens, NB69;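 also: growth inhibition of NB69 cells, determined by a cell viability assay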
Description: SANGER: Inhibition of human NB69 cell growth in a cell viability assay.

[17] = test system: GI-ME-N; format: functional, cell-based, Homo sapiens; details: Homo sapiens, GI-ME-N;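 also: growth inhibition of human GI-ME-N cells, read out with a cell viability assay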
Description: SANGER: Inhibition of human GI-ME-N cell growth in a cell viability assay.

[18] = test system: EM-2; format: functional, cell-based, Homo sapiens; details: Homo sapiens, EM-2;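 also: growth inhibition of EM-2 cells, read out with a cell viability assay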
Description: SANGER: Inhibition of human EM-2 cell growth in a cell viability assay.

[19] = test system: EW-24; format: functional, cell-based, Homo sapiens; details: Homo sapiens, EW-24;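 also: human EW-24 cancer cell line, growth inhibition read out via a cell viability assay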
Description: SANGER: Inhibition of human EW-24 cell growth in a cell viability assay.

[20] = test system: MOLT-16; format: functional, cell-based, Homo sapiens; details: Homo sapiens, MOLT-16;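 also: growth inhibition of human MOLT-16 cells, read out with a cell viability assay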
Description: SANGER: Inhibition of human MOLT-16 cell growth in a cell viability assay.

[21] = test system: IST-MES1; format: functional, cell-based, Homo sapiens; details: Homo sapiens, IST-MES1;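 also: growth inhibition of IST-MES1 cells, measured with a cell viability assay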
Description: SANGER: Inhibition of human IST-MES1 cell growth in a cell viability assay.

[22] = test system: K5; format: functional, cell-based, Homo sapiens; details: Homo sapiens, K5
Description: SANGER: Inhibition of human K5 cell growth in a cell viability assay.

[23] = test system: DSH1; format: functional, cell-based, Homo sapiens; details: Homo sapiens, DSH1;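 also: growth inhibition of human DSH1 cells, measured with a cell viability readout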
Description: SANGER: Inhibition of human DSH1 cell growth in a cell viability assay.

[24] = test system: BE-13; format: functional, cell-based, Homo sapiens; details: Homo sapiens, BE-13;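 also: growth inhibition of human BE-13 cells, measured with a cell viability assay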
Description: SANGER: Inhibition of human BE-13 cell growth in a cell viability assay.

[25] = test system: NCI-H1395; format: functional, cell-based, Homo sapiens; details: Homo sapiens, NCI-H1395;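 also: cell viability assay read-out quantifying reduced proliferation of human NCI-H1395 cells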
Description: SANGER: Inhibition of human NCI-H1395 cell growth in a cell viability assay.

[26] = test system: GB-1; format: functional, cell-based, Homo sapiens; details: Homo sapiens, GB-1;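 also: growth of GB-1 cells judged by a viability assay, IC50 marks the concentration inhibiting growth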
Description: SANGER: Inhibition of human GB-1 cell growth in a cell viability assay.

[27] = test system: TE-11; format: functional, cell-based, Homo sapiens; details: Homo sapiens, TE-11;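 also: growth inhibition of human TE-11 cells, read out by a cell viability assay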
Description: SANGER: Inhibition of human TE-11 cell growth in a cell viability assay.

[28] = test system: NCI-H1355; format: functional, cell-based, Homo sapiens; details: Homo sapiens, NCI-H1355;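 also: growth inhibition of human NCI-H1355 cells, read out by a cell viability assay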
Description: SANGER: Inhibition of human NCI-H1355 cell growth in a cell viability assay.

[29] = test system: HDLM-2; format: functional, cell-based, Homo sapiens; details: Homo sapiens, HDLM-2;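 also: cell viability assay measuring suppression of HDLM-2 proliferation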
Description: SANGER: Inhibition of human HDLM-2 cell growth in a cell viability assay.

[30] = test system: CAS-1; format: functional, cell-based, Homo sapiens; details: Homo sapiens, CAS-1;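 also: growth inhibition of CAS-1 cells, measured with a cell viability assay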
Description: SANGER: Inhibition of human CAS-1 cell growth in a cell viability assay.

[31] = test system: TK-10; format: functional, cell-based, Homo sapiens; details: Homo sapiens, TK-10;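 also: growth inhibition of TK-10 cells, read out in a cell viability assay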
Description: SANGER: Inhibition of human TK10 cell growth in a cell viability assay.

[32] = test system: EW-3; format: functional, cell-based, Homo sapiens; details: Homo sapiens, EW-3;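 also: cell viability assay read-out, IC50 reflects inhibition of growth of the EW-3 cells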
Description: SANGER: Inhibition of human EW-3 cell growth in a cell viability assay.

[33] = test system: TE-6; format: functional, cell-based, Homo sapiens; details: Homo sapiens, TE-6;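 also: growth inhibition of TE-6 cells, read out with a cell viability assay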
Description: SANGER: Inhibition of human TE-6 cell growth in a cell viability assay.

[34] = test system: D283 Med; format: functional, cell-based, Homo sapiens; details: Homo sapiens, D283 Med
Description: SANGER: Inhibition of human D-283MED cell growth in a cell viability assay.

[35] = test system: D-502MG; format: functional, cell-based, Homo sapiens; details: Homo sapiens, D-502MG
Description: SANGER: Inhibition of human D-502MG cell growth in a cell viability assay.

[36] = test system: SNU-C2B; format: functional, cell-based, Homo sapiens; details: Homo sapiens, SNU-C2B;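 also: cell viability readout used to measure compound-driven suppression of SNU-C2B cell proliferation, IC50 marking half-maximal growth inhibition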
Description: SANGER: Inhibition of human SNU-C2B cell growth in a cell viability assay.

[37] = test system: NB13; format: functional, cell-based, Homo sapiens; details: Homo sapiens, NB13;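 also: cell viability readout measuring growth inhibition of human NB13 cells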
Description: SANGER: Inhibition of human NB13 cell growth in a cell viability assay.

[38] = test system: NCI-H510A; format: functional, cell-based, Homo sapiens; details: Homo sapiens, NCI-H510A;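 also: growth inhibition of NCI-H510A cells, read out with a cell viability assay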
Description: SANGER: Inhibition of human NCI-H510A cell growth in a cell viability assay.

[39] = test system: IST-SL1; format: functional, cell-based, Homo sapiens; details: Homo sapiens, IST-SL1;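 also: growth inhibition of human IST-SL1 cells, read out with a cell viability assay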
Description: SANGER: Inhibition of human IST-SL1 cell growth in a cell viability assay.

[40] = test system: MMAC-SF; format: functional, cell-based, Homo sapiens; details: Homo sapiens, MMAC-SF;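 also: growth inhibition of human MMAC-SF cells, read out with a cell viability assay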
Description: SANGER: Inhibition of human MMAC-SF cell growth in a cell viability assay.

[41] = test system: SK-MEL-1; format: functional, cell-based, Homo sapiens; details: Homo sapiens, SK-MEL-1;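 also: growth inhibition of human SK-MEL-1 cells, read out by a cell viability assay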
Description: SANGER: Inhibition of human SK-MEL-1 cell growth in a cell viability assay.

[42] = test system: MPP-89; format: functional, cell-based, Homo sapiens; details: Homo sapiens, MPP-89;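 also: growth inhibition of human MPP-89 cells, read out with a cell viability assay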
Description: SANGER: Inhibition of human MPP-89 cell growth in a cell viability assay.

[43] = test system: NCI-H526; format: functional, cell-based, Homo sapiens; details: Homo sapiens, NCI-H526;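 also: growth inhibition of the human NCI-H526 cell line, measured by a cell viability assay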
Description: SANGER: Inhibition of human NCI-H526 cell growth in a cell viability assay.

[44] = test system: MSTO-211H; format: functional, cell-based, Homo sapiens; details: Homo sapiens, MSTO-211H
Description: SANGER: Inhibition of human MSTO-211H cell growth in a cell viability assay.

[45] = test system: NCI-H747; format: functional, cell-based, Homo sapiens; details: Homo sapiens, NCI-H747;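 also: growth inhibition of human NCI-H747 cells, read out by a cell viability assay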
Description: SANGER: Inhibition of human NCI-H747 cell growth in a cell viability assay.

[46] = test system: C2BBe1; format: functional, cell-based, Homo sapiens; details: Homo sapiens, C2BBe1;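 also: growth inhibition of C2BBe1 cells, read out through a viability assay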
Description: SANGER: Inhibition of human C2BBe1 cell growth in a cell viability assay.

[47] = test system: GI-1; format: functional, cell-based, Homo sapiens; details: Homo sapiens, GI-1;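 also: growth inhibition of human GI-1 cells, measured with a cell viability readout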
Description: SANGER: Inhibition of human GI-1 cell growth in a cell viability assay.

[48] = test system: NCI-H1304; format: functional, cell-based, Homo sapiens; details: Homo sapiens, NCI-H1304;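 also: growth inhibition of the cancer cell line, measured in a cell viability assay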
Description: SANGER: Inhibition of human NCI-H1304 cell growth in a cell viability assay.

SMILES: Cc1cc([N+](=O)[O-])ccc1NS(=O)(=O)c1cc(Cl)ccc1Cl
- IC50 [1]: 0.81 µM
- IC50 [2]: 6 µM
- IC50 [3]: > 32 µM
- IC50 [4]: 3.05 µM
- IC50 [5]: > 32 µM
- IC50 [6]: 22.4 µM
- IC50 [7]: 5.08 µM
- IC50 [8]: > 32 µM
- IC50 [9]: 22.9 µM
- IC50 [10]: 13.2 µM
- IC50 [11]: 6.75 µM
- IC50 [12]: 19.2 µM
- IC50 [13]: 11.9 µM
- IC50 [14]: 7.83 µM
- IC50 [15]: 12.6 µM
- IC50 [16]: 31.3 µM
- IC50 [17]: 11.5 µM
- IC50 [18]: 16.3 µM
- IC50 [19]: > 32 µM
- IC50 [20]: 5.12 µM
- IC50 [21]: 4.85 µM
- IC50 [22]: 6.43 µM
- IC50 [23]: 0.949 µM
- IC50 [24]: 7.53 µM
- IC50 [25]: > 32 µM
- IC50 [26]: 2.19 µM
- IC50 [27]: > 32 µM
- IC50 [28]: 2.93 µM
- IC50 [29]: 6.71 µM
- IC50 [30]: 8.88 µM
- IC50 [31]: 10.2 µM
- IC50 [32]: > 32 µM
- IC50 [33]: 19.2 µM
- IC50 [34]: 3.96 µM
- IC50 [35]: 0.607 µM
- IC50 [36]: 4.29 µM
- IC50 [37]: 7.32 µM
- IC50 [38]: 20.2 µM
- IC50 [39]: 24.4 µM
- IC50 [40]: 3.92 µM
- IC50 [41]: > 32 µM
- IC50 [42]: 20.1 µM
- IC50 [43]: 28.2 µM
- IC50 [44]: > 32 µM
- IC50 [45]: 7.48 µM
- IC50 [46]: 25.4 µM
- IC50 [47]: 1.43 µM
- IC50 [48]: > 32 µM

SMILES: Oc1ccc2ccccc2c1SSc1c(O)ccc2ccccc12
- IC50 [1]: > 32 µM
- IC50 [2]: > 32 µM
- IC50 [3]: > 32 µM
- IC50 [4]: > 32 µM
- IC50 [5]: > 32 µM
- IC50 [6]: > 32 µM
- IC50 [7]: > 32 µM
- IC50 [8]: > 32 µM
- IC50 [9]: > 32 µM
- IC50 [10]: 23.2 µM
- IC50 [11]: > 32 µM
- IC50 [12]: > 32 µM
- IC50 [13]: > 32 µM
- IC50 [14]: > 32 µM
- IC50 [15]: 6.89 µM
- IC50 [16]: 6.76 µM
- IC50 [17]: > 32 µM
- IC50 [18]: > 32 µM
- IC50 [19]: > 32 µM
- IC50 [20]: > 32 µM
- IC50 [21]: > 32 µM
- IC50 [22]: > 32 µM
- IC50 [23]: > 32 µM
- IC50 [24]: > 32 µM
- IC50 [25]: > 32 µM
- IC50 [26]: 2.63 µM
- IC50 [27]: > 32 µM
- IC50 [28]: > 32 µM
- IC50 [29]: > 32 µM
- IC50 [30]: > 32 µM
- IC50 [31]: > 32 µM
- IC50 [32]: 29.5 µM
- IC50 [33]: > 32 µM
- IC50 [34]: > 32 µM
- IC50 [35]: > 32 µM
- IC50 [36]: > 32 µM
- IC50 [37]: 4.23 µM
- IC50 [38]: > 32 µM
- IC50 [39]: > 32 µM
- IC50 [40]: > 32 µM
- IC50 [41]: > 32 µM
- IC50 [42]: > 32 µM
- IC50 [43]: > 32 µM
- IC50 [44]: > 32 µM
- IC50 [45]: > 32 µM
- IC50 [46]: > 32 µM
- IC50 [47]: > 32 µM
- IC50 [48]: > 32 µM
